According to the NIST ThermoML archive (doi:10.1016/j.jct.2017.11.012):

Settings: for mass density: 101.33 kPa, Liquid, Buoyancy - hydrostatic balance with magnetic suspension - one sinker

CCCCCn1cc[n+](C)c1.[Br-] [1-pentyl-3-methylimidazolium bromide]
Settings	mass density [kg/m3]
298.49 K	1262.83
303.3 K	1259.38
308.12 K	1256.49
313.27 K	1252.83
318.27 K	1249.49
323.3 K	1245.55
327.41 K	1242.66
333.16 K	1239.16
338.01 K	1236.12
343.01 K	1232.8
348.13 K	1229.53
353.01 K	1226.21
358.12 K	1222.61
362.97 K	1219.41

Settings	surface tension liquid-gas [mN/m]
333.23 K, Ring tensiometer	41.96
333.26 K, Wilhelmy Plate	41.79
338.06 K, Ring tensiometer	41.95
338.08 K, Wilhelmy Plate	41.6
343.07 K, Ring tensiometer	41.84
343.09 K, Wilhelmy Plate	41.38
348.23 K, Ring tensiometer	41.59
348.26 K, Wilhelmy Plate	41.18
353.11 K, Ring tensiometer	41.45
353.13 K, Wilhelmy Plate	41
358.22 K, Ring tensiometer	41.24
358.24 K, Wilhelmy Plate	40.81
363.07 K, Ring tensiometer	41.04
363.12 K, Wilhelmy Plate	40.6

CCCCCCCCCn1cc[n+](C)c1.[Br-] [1-methyl-3-nonylimidazolium bromide]
Settings	mass density [kg/m3]
293.53 K	1151.11
298.66 K	1147.53
303.27 K	1143.87
308.55 K	1140.39
313.46 K	1136.5
318.04 K	1132.93
323.21 K	1129.22
327.91 K	1125.75
333.09 K	1122.06
338.45 K	1118.47
342.75 K	1115.49
348.28 K	1112.09
353.51 K	1108.37
358.3 K	1105.2
361.69 K	1103.16

surface tension liquid-gas [mN/m]
Settings	Ring tensiometer	Wilhelmy Plate
298.64 K	30.63	–
303.27 K	30.41	–
303.28 K	–	30.12
308.54 K	30.17	–
308.55 K	–	29.91
313.44 K	29.95	29.73
318.03 K	29.77	29.54
323.2 K	29.62	–
323.23 K	–	29.3
327.94 K	29.41	–
327.97 K	–	29.1
333.09 K	29.19	–
333.11 K	–	28.86
338.49 K	28.72	28.59
342.76 K	28.51	–
342.8 K	–	28.39
348.23 K	28.46	–
348.31 K	–	28.18
352.32 K	27.98	–
352.4 K	–	27.99
358.25 K	27.94	–
358.31 K	–	27.75
361.6 K	27.82	–
361.68 K	–	27.59

CCn1cc[n+](C)c1.[Br-] [1-ethyl-3-methylimidazolium bromide]
surface tension liquid-gas [mN/m]
Settings	343.14 K	348.29 K	348.32 K	352.84 K	358.28 K	364.1 K	364.11 K
Ring tensiometer	62.01	61.86	–	61.28	61.25	60.53	–
Wilhelmy Plate	–	–	61.4	61.03	60.65	–	60.34

Settings	mass density [kg/m3]
348.26 K	1381.17
352.77 K	1378.39
358.17 K	1375.04
364.02 K	1370.88

Br.Cn1ccnc1 [1-methylimidazolium bromide]
surface tension liquid-gas [mN/m]
Settings	Ring tensiometer	Wilhelmy Plate
323.07 K	67.99	68.35
328.84 K	67.68	67.81
332.74 K	–	67.37
332.76 K	67.45	–
337.93 K	67.14	–
338.02 K	–	66.81
344.29 K	66	–
344.42 K	–	66.16
347.21 K	65.6	–
347.25 K	–	65.85
353.02 K	64.6	–
353.08 K	–	65.23
358.29 K	64.85	–
358.33 K	–	64.67
364.65 K	64.42	–
364.75 K	–	63.96

Settings	mass density [kg/m3]
328.83 K	1557.9
332.76 K	1554.36
337.92 K	1550.16
344.29 K	1544.92
347.1 K	1542.88
353.02 K	1538.47
358.15 K	1534.17
364.58 K	1530.63
